In patent publication US20230000853A1, “PHARMACEUTICAL COMPOSITION CONTAINING NITROXOLINE, NITROXOLINE TABLET, PREPARATION METHOD THEREFOR AND USE THEREOF” (JIANGSU YAHONG MEDITECH CO., LTD., priority 2019, published 2023):

What was measured:
[1] = Particle size determination by Malvern laser particle size analyzer, wet method; format: physicochemical; conditions: pulverized raw material; dispersant 0.5% aqueous Tween 80
Method: The initial particle size D90 of the raw material nitroxoline or nitroxoline lysine salt was more than 100 μm. The raw material was pulverized with the mechanical mill to obtain the raw material having the particle size I, II, III or V in the following Table 1. The raw material was pulverized with the jet mill to obtain the raw material having the particle size IV in the following Table 1.
Determination was carried out on the Malvern laser particle size analyzer MS2000 by wet method according to the operation requirements of the instrument, the dispersant was an aqueous Tween 80 solution, and the mass fraction of Tween 80 in the aqueous solution was 0.5%.

[2] = Solubility and dissolution of nitroxoline in aqueous media; format: physicochemical; conditions: 0.1 mol/L hydrochloric acid, water and phosphate buffer (pH 6.8) at 37° C.
Text: In addition, the resulting nitroxoline tablets have uniform content, narrow variation range in hardness, and good fluidity and compressibility.

[3] = low solubility and high permeability; cited from earlier work
[4] = target: T1, methionine aminopeptidase MetAP2 (Homo sapiens, UniProt P50579); conditions: vascular endothelial cells; cited from earlier work
T1 construct: host or cells: vascular endothelial cells
T1 sequence (P50579 whole entry): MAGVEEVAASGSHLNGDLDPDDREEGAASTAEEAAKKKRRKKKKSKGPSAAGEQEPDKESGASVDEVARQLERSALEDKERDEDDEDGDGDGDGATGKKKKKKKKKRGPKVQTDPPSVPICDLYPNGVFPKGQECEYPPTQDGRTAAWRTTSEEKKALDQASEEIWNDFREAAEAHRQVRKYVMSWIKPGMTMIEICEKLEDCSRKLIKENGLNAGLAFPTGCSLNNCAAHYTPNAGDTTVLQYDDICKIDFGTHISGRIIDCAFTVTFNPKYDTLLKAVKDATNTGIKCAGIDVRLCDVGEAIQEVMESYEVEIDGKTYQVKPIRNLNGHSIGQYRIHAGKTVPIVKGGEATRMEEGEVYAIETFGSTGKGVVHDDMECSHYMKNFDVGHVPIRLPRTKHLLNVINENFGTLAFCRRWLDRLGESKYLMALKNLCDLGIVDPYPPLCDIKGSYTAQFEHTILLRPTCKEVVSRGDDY

[5] = target: T2, silence information regulator 2-related enzyme SIRT1 (Homo sapiens, UniProt Q96EB6); conditions: vascular endothelial cells; cited from earlier work
T2 construct: host or cells: vascular endothelial cells
T2 sequence (Q96EB6 1-747): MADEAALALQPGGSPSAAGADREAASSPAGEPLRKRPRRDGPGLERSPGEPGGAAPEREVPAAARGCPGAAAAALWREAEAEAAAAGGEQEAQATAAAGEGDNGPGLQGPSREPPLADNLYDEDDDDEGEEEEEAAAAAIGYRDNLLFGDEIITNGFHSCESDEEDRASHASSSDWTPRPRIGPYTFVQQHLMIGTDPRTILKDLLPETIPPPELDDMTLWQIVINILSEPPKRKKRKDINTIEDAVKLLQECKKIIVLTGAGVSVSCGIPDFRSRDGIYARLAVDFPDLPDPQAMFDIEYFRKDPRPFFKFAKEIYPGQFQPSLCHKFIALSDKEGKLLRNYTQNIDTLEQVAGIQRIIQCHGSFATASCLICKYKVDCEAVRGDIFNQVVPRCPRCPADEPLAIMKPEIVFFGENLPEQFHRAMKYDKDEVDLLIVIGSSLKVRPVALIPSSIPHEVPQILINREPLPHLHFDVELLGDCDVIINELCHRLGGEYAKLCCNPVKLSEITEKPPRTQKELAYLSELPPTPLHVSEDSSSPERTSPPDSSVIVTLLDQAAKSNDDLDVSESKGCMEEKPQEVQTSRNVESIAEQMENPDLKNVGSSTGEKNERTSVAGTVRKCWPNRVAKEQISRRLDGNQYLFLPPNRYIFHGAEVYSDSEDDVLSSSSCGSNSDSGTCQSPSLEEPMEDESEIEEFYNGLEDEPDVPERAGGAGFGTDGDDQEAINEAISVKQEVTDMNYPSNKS

Row | Structure (SMILES) | Particle size D10 [1] | Particle size D50 [1] | Particle size D90 [1] | Solubility and dissolution [2] | BCS class [3] | Inhibition of MetAP2 [4] | Inhibition of SIRT1 [5]
1 | O=[N+]([O-])c1ccc(O)c2ncccc12 [II (Nitroxoline), Nitroxoline] | 3.99 μm | 14.95 μm | 70.58 μm | – | – | – | –
2 | O=[N+]([O-])c1ccc(O)c2ncccc12 [III (Nitroxoline), Nitroxoline] | 3.44 μm | 11.02 μm | 42.55 μm | – | – | – | –
3 | NCCCC[C@H](N)C(=O)O.O=[N+]([O-])c1ccc(O)c2ncccc12 [V (Nitroxoline lysine salt), Nitroxoline lysine salt] | 3.67 μm | 10.88 μm | 43.29 μm | – | – | – | –
4 | O=[N+]([O-])c1ccc(O)c2ncccc12 [I (Nitroxoline), Nitroxoline] | 5.66 μm | 33.60 μm | 99.31 μm | – | – | – | –
5 | O=[N+]([O-])c1ccc(O)c2ncccc12 [nitroxoline, 5-nitro-8-hydroxyquinoline] | – | – | – | low solubility and slow dissolution | BCS class II | inhibit | inhibit
6 | O=[N+]([O-])c1ccc(O)c2ncccc12 [IV (Nitroxoline), Nitroxoline] | 0.12 μm | 4.58 μm | 12.61 μm | – | – | – | –
